Data: paper PMC5405074, “Receptor-Mediated Melanoma Targeting with Radiolabeled α-Melanocyte-Stimulating Hormone: Relevance of the Net Charge of the Ligand” (Frontiers in Endocrinology, 2017)
Read-outs that look alike come from different tables or passages of the source.

Assays:
[1] = molecular target: T1, MC1R (HBL cells) (Homo sapiens, UniProt Q01726); assay: Competition binding assay with [^125I]-NDP-MSH, human HBL melanoma cells; settings: HBL cells, [^125I]-NDP-MSH competition, 37°C, 2 h; n = 3–20; ± SEM; ^c = P < 0.05 vs. DOTA-NAP-amide; read-out: Receptor-binding potency IC50
T1 construct: endogenous in cells; host or cells: human HBL melanoma cell line
T1 sequence (Q01726 whole entry): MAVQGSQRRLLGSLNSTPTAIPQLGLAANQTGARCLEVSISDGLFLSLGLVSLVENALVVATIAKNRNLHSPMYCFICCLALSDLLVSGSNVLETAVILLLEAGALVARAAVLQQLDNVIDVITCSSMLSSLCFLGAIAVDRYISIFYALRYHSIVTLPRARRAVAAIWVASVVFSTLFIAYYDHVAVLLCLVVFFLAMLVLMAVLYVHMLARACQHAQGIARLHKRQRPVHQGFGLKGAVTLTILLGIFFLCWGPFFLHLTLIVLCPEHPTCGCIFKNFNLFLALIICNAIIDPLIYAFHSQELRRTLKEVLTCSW
Experimental: (§1) Triplicates of 100-µL volumes of B16-F1 or HBL cell suspensions adjusted to 4 × 10^6/mL were incubated in 96-well U-bottom microplates (Falcon 3077). The binding medium consisted of MEM with Earle’s salts, 0.2% BSA, and 0.3 mM 1,10-phenanthroline. This binding medium was called mouse binding medium (MBM). Triplicates of competitor peptide solution (50 µL) yielding final concentrations ranging from 1 × 10^−6 to 1 × 10^−12 M were added. [^125I]NDP-MSH (50,000 cpm) in 50 µL was finally added to each well. The plates were incubated at 15°C for 3 h for B16-F1 cells and at 37°C for 2 h for HBL cells. The incubation was stopped by covering the plates with ice for 10 min. A cell harvester was used to collect cell-bound radioactivity on filters (Packard Unifilter-96 GF/B). The collected radioactivity was counted on a TopCount scintillation counter (Packard) after addition of 50 µL Microscint-20 scintillation cocktail (Perkin Elmer). The IC50 values were calculated with the Prism 6 software (GraphPad Software Inc., San Diego CA, USA).
(§2) The binding affinity of the peptides to MC1R was assessed by competition binding assays using [^125I]-NDP-MSH as radioligand and both murine B16-F1 and human HBL cells.

[2] = molecular target: T2, MC1R (B16-F1 cells) (Mus musculus, UniProt Q01727); assay: Competition binding assay with [^125I]-NDP-MSH, mouse B16-F1 melanoma cells; settings: B16-F1 cells, [^125I]-NDP-MSH competition, 15°C, 3 h; n = 3–20; ± SEM; ^c = P < 0.05 vs. DOTA-NAP-amide; read-out: Receptor-binding potency IC50
T2 construct: endogenous in cells; host or cells: mouse B16-F1 melanoma cells
T2 sequence (Q01727 whole entry): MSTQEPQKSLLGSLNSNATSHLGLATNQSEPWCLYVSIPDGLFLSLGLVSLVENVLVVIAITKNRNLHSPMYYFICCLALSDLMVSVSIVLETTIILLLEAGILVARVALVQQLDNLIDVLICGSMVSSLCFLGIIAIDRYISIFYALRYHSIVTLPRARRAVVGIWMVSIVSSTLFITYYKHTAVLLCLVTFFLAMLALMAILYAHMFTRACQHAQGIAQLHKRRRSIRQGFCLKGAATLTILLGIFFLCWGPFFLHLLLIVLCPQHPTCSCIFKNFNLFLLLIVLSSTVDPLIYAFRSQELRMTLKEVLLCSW
Experimental: as §1, §2

[3] = Biodistribution of ^111In-labeled peptides in B16-F1 melanoma-bearing mice; type: in vivo, mouse (B6D2F1); settings: female, iv, total radioactivity, ^111In-labeled peptide, 185 kBq i.v., mean ± SEM of three experiments, n = 5 animals each
Experimental: About 5 × 10^5 B16-F1 cells were implanted subcutaneously to female B6D2F1 mice (C57BL/6 × DBA/2F1 hybrids; breeding pairs obtained from IFFA-CREDO, France). Seven days later, 185 kBq of ^111In-labeled ligand in 200 µL PBS/0.1% BSA were injected intravenously into the lateral tail vein of each mouse. Control mice were injected with a mixture of the tracer and 50 µg α-MSH to determine the non-specific uptake of radioligand. The animals were sacrificed 4, 24, and 48 h postinjection, dissected, and the tissues of interest collected, rinsed of excess blood, and weighed. The radioactivity emitted by each organ was measured in a γ-counter to determine the tissue uptake as percentage of the injected dose (ID) per gram of tissue. The total of injected radioactivity per animal was determined by extrapolation from the counts of a standard collected from the injection solution for each animal. Urine samples were collected at 10, 15, and 20 min and 4 h after injection and kept frozen at −80°C until use. Urine (1 vol) was mixed with methanol (2 vol) to precipitate proteins, and the supernatant was analyzed by RP-HPLC/γ-detection, as described in Ref. ([12]).
Results are expressed as means ± SEM, unless otherwise stated. The statistical evaluation of data was performed using the one- or two-way ANOVA test. When significant overall effects were obtained by ANOVA, multiple comparisons were made with the Bonferroni correction. P < 0.05 was considered statistically significant. The area under the curve (AUC) was calculated with the GraphPad Prism 6 software for the indicated period of time, using the mean tissue uptake value at each time point.

[4] = B6D2F1 (C57BL/6 × DBA/2F1 hybrids), mouse, blood, read-out: Blood uptake
[5] = B6D2F1 (C57BL/6 × DBA/2F1 hybrids), mouse, muscle, read-out: Muscle uptake
[6] = B6D2F1 (C57BL/6 × DBA/2F1 hybrids), mouse, tumor, read-out: Tumor uptake
[7] = B6D2F1, mouse, bone, read-out: Bone uptake
[8] = B6D2F1, mouse, heart, read-out: Heart uptake
[9] = B6D2F1, mouse, kidney, read-out: Kidney uptake
[10] = B6D2F1, mouse, liver, read-out: Liver uptake
[11] = B6D2F1, mouse, lung, read-out: Lung uptake
[12] = B6D2F1, mouse, pancreas, read-out: Pancreas uptake
[13] = B6D2F1, mouse, small intestines, read-out: Small intestines uptake
[14] = B6D2F1, mouse, spleen, read-out: Spleen uptake
[15] = B6D2F1, mouse, stomach, read-out: Stomach uptake

CCCC[C@H](NC(C)=O)C(=O)N[C@@H](CC(=O)O)C(=O)N[C@@H](Cc1c[nH]cn1)C(=O)N[C@H](Cc1ccccc1)C(=O)N[C@@H](CCCNC(=N)N)C(=O)N[C@@H](Cc1c[nH]c2ccccc12)C(=O)NCC(=O)N[C@@H](CCCCNC(=O)CN1CCN(CC(=O)O)CCN(CC(=O)O)CCN(CC(=O)O)CC1)C(N)=O [DOTA-NAP-amide, [Ac-Nle^4,Asp^5,D-Phe^7,Lys^11(DOTA)]-α-MSH4-11, reference compound]
IC50 [1]: 3.09 ± 1.11 nM | IC50 [2]: 1.38 ± 0.35 nM | tissue uptake at 4 h [3, 4]: 0.09 ± 0.02 %ID/g | tissue uptake at 24 h [3, 4]: 0.02 %ID/g | tissue uptake at 48 h ([3]; B6D2F1 (C57BL/6 × DBA/2F1 hybrids), mouse, bone, read-out: Bone uptake): 0.05 ± 0.01 %ID/g | tissue uptake at 4 h [3, 5]: 0.05 ± 0.01 %ID/g | tissue uptake at 24 h [3, 5]: 0.02 %ID/g | tissue uptake at 48 h [3, 5]: 0.01 %ID/g | tissue uptake at 24 h [3, 6]: 2.32 ± 0.15 %ID/g | tissue uptake at 48 h [3, 6]: 1.41 ± 0.12 %ID/g | tissue uptake at 4 h [3, 7]: 0.11 ± 0.02 %ID/g | tissue uptake at 24 h [3, 7]: 0.14 ± 0.02 %ID/g | tissue uptake at 4 h [3, 8]: 0.05 ± 0.01 %ID/g | tissue uptake at 24 h [3, 8]: 0.03 %ID/g | tissue uptake at 48 h [3, 8]: 0.01 %ID/g | tissue uptake at 24 h [3, 9]: 2.41 ± 0.2 %ID/g | tissue uptake at 48 h [3, 9]: 1.55 ± 0.07 %ID/g | tissue uptake at 4 h [3, 10]: 0.34 ± 0.05 %ID/g | tissue uptake at 24 h [3, 10]: 0.31 ± 0.02 %ID/g | tissue uptake at 48 h [3, 10]: 0.27 ± 0.07 %ID/g | tissue uptake at 4 h [3, 11]: 0.08 ± 0.01 %ID/g | tissue uptake at 24 h [3, 11]: 0.05 ± 0.01 %ID/g | tissue uptake at 48 h [3, 11]: 0.03 %ID/g | tissue uptake at 4 h [3, 12]: 0.04 %ID/g | tissue uptake at 24 h [3, 12]: 0.03 %ID/g | tissue uptake at 48 h [3, 12]: 0.02 %ID/g | tissue uptake at 4 h [3, 13]: 0.07 ± 0.01 %ID/g | tissue uptake at 24 h [3, 13]: 0.08 ± 0.01 %ID/g | tissue uptake at 48 h [3, 13]: 0.05 ± 0.01 %ID/g | tissue uptake at 4 h [3, 14]: 0.14 ± 0.01 %ID/g | tissue uptake at 24 h [3, 14]: 0.11 ± 0.01 %ID/g | tissue uptake at 48 h [3, 14]: 0.1 ± 0.01 %ID/g | tissue uptake at 4 h [3, 15]: 0.09 ± 0.01 %ID/g | tissue uptake at 24 h [3, 15]: 0.12 ± 0.02 %ID/g | tissue uptake at 48 h [3, 15]: 0.11 ± 0.05 %ID/g
